# Measurements: patent US9023814B2, “Glycomimetic compounds as anti-infectious against pathogens lectins” (priority 2010, dated 2015)
# Read-outs that look alike come from different tables or passages of the source.
# What was measured:
# LecA [1] = target: T1, LecA (Pseudomonas aeruginosa, UniProt Q05097); experiment: Inhibition of Hemagglutination (HIA), LecA-induced agglutination of rabbit erythrocytes; type: cell-based; settings: LecA 6 μg/mL, 25° C.
# Method: Inhibition of Hemagglutination (IHA) (or Hemagglutination Inhibition Assays (HIA)).
# The LecA lectin agglutinates red blood cells since they are covered by glycoconjugates. The glycomimetics inhibit this agglutination.
# For each compound the minimum concentration able to perform inhibition has been evaluated. The method is not very quantitative but mimics natural system.
# (§1) More particularly, hemagglutination inhibition assays were performed in U-shaped 96-well microtitre plates. Rabbit erythrocytes were bought from Biomerieux and used without further washing. The erythrocytes were diluted to a 4% solution in NaCl (150 mM). Lectin solutions of 2 mg/mL were prepared in Tris/HCl 20 mM, NaCl 100 mM and CaCl2 100 μM. The hemagglutination unit (HU) was first obtained by the addition of 25 μL of the 4% erythrocyte solution to 25 μL aliquots of sequential (two-fold) lectin dilutions. The mixture was incubated at 25° C. for 60 minutes. The HU was measured as the minimum lectin concentration required to […] hemagglutination. For the following lectin-inhibition assays, lectin concentrations of four times that of the hemagglutination unit were used, i.e. a concentration of 6 μg/mL for LecA. Subsequent assays were then carried out by the addition of 12.5 μL lectin solution (at the required concentration) to 25 μL of sequential dilutions of glycoclusters, monomer molecules and controls. These solutions were then incubated at 25° C. for 2 h then 12.5 μL of 4% erythrocyte solution was added followed by an additional incubation at 25° C. for 30 minutes. The minimum inhibitory concentration for each molecule was determined by simple eye detection.
# Compounds 5, 10, 14, 19, 21, 23, 25, 27, 29 and 31 were evaluated towards LecA according to Method 1.
# LecA [2] = target: T1, LecA; experiment: Enzyme-Linked Lectin Assay (ELLA), biotinylated LecA binding to polymeric galactose
# Method: Enzyme-Linked Lectin Assay (ELLA) Experiments 96-well plates are covered with polymer presenting galactose (which is the monosaccharide that is bound by LecA). The lectin labelled with biotin is added in presence of competing glycomimetics. IC50 can be measured.
# More particularly, ELLA experiments were conducted using 96-well microtitre plates (Nunc Maxisorb) coated with polymeric β-D-galactose (5 μg/mL; Lectinity Holding, Inc., Moscow) diluted in carbonate buffer, pH 9.6 (100 μL) for 1 h at 37° C. After blocking at 37° C. for 1 h with 100 μL per well of 3% (w/v) BSA in PBS, plates were incubated at 37° C. for 1 h with 100 μL of biotinylated LecA at 0.1 μg/mL in the presence of serial dilutions of inhibitors. After washing with T-PBS (PBS containing 0.05% Tween), 100 μL of streptavidinperoxidase conjugate (dilution 1:10000; Boehringer-Mannheim) was added and left for 1 h at 37° C. The color was developed using 100 μL per well of 0.05 M phosphate/citrate buffer containing O-phenylenediamine dihydrochloride (0.4 mg/mL) and urea hydrogen peroxide (0.4 mg/mL) (Sigma-Aldrich). The reaction was stopped by the addition of 50 μL of 30% H2SO4. Absorbance was read at 490 nm using a microtitre plate reader (Bio-Rad; model 680).
# Rabbit erythrocytes = experiment: Hemolysis of red cells observed in the hemagglutination inhibition assay; type: cell-based; settings: at the concentration used in the hemagglutination inhibition assay
# Method: as §1
# The values given in table 1 are inhibiting concentrations of lectin-induced rec cells agglutination. Monocovalent glycoconjugate compound 14 and tetravalent glyconjugate compounds 21 and 23 are the most efficient.
# LecA [3] = target: T1, LecA; experiment: biochemical; type: binding
# Method: Surface Plasmon Resonance (SPR).
# Equivalent method, but performed in miniaturized channel on a galactose-containing chips in a more sophisticated apparatus (Biacore 3000) that allows for a precise determination of the IC50.
# More particularly, SPR inhibition experiments were performed on a Biacore 3000 instrument at 25° C. Measurements were carried out on 2 channels with 2 immobilised sugars: α-L-fucose (channel 1), α-D-galactose (channel 2). Immobilization of sugars was performed at 25° C. using running buffer (HBS) at 5 μL/min. Immobilization on each channel (CM5 Chip) was performed independently as follows. First, channel was activated by injecting a fresh mixture of EDC/NHS (35 μL, 420 s). Then, a solution of strepatavidin (100 μg/mL in Na acetate pH 5 buffer) was injected (50 μL, 600 s). Remaining reactive species were quenched by injecting ethanolamine (1M, 35 μL, 420 s). Finally a solution of the desired biotinylated-polyacrylamide-sugar (Lectinity, 200 μg/mL) was coated onto the surface (50 μL, 600 s) through streptavidin-biotin interaction. This procedure led to 804 RU (fucoside) and 796 RU (galactoside) of immobilized sugars on channel 1 and 2 respectively. Inhibition experiments were performed with the galactosylated channel 2 and plots represent subtracted data (channel 2-channel 1).
# LecA was injected using running buffer consisting of HEPES 10 mM, NaCl 150 mM, CaCl2 10 mM, Tween P20 0.005%, pH 7.4. Inhibition studies consisted in the injection (150 μL, 10 μL/min, dissociation: 120 s) of incubated (>1 h, r.t.) mixtures of LecA (5 μM) and various concentrations of inhibitor (2-fold cascade dilutions). For each inhibition assay, LecA (5 μM) without inhibitor was injected to observe the full adhesion of the lectin onto the sugar-coated surface (0% inhibition). The CM5 chip was fully regenerated by successive injections of D-Galactose (2×30 μL, 100 mM in running buffer).
# Binding was measured as RU over time after blank subtraction, and data were then evaluated using the BIAevaluation Software, version 4.1. For IC50 evaluation, the response (Req-fitted) was considered as the amount of lectin bound to the sugar surface at equilibrium in the presence of a defined concentration of inhibitor. Inhibition curves were obtained by plotting the percentage of inhibition against the inhibitor concentration (on a logarithmic scale) by using Origin 7.0 software (OriginLab Corp.) and IC50 values were extracted from sigmoidal fit of the inhibition curve.
# LecA [4] = target: T1, LecA; experiment: biochemical; type: binding; remark: listed apart in the source
# Method: Isothermal Titration Microcalorimetry (ITC).
# The method allows for a direct measurement of the affinity between the glycomimetics and the LecA lectin. The dissociation constant is measured.
# More particularly, recombinant lyophilized LecA was dissolved in buffer (0.1 M TrisHCl, 6 μM CaCl2, pH 7.5) and degassed (see Supp. Info. for concentration details). Protein concentration was checked by measurement of optical density using a theoretical molar extinction coefficient of 28000. Carbohydrate ligands were dissolved directly into the same buffer, degassed, and placed in the injection syringe. ITC was performed with a VP-ITC MicroCalorimeter from MicroCal Incorporated. PA-IL was placed into the 1.4478-mL sample cell, at 25° C. Titration was performed with 10-μL injections of carbohydrate ligands every 300 s. Data were fitted with MicroCal Origin 7 software, according to standard procedures. Fitted data yielded the stoichiometry (n), the association constant (Ka) and the enthalpy of binding (ΔH).
# Other thermodynamic parameters (i.e. changes in free energy, ΔG, and entropy, ΔS) were calculated from the equation: ΔG=ΔH TΔS=−RT Inka where T is the absolute temperature and R=8.314 J·mol^−1·K^−1. Two or three independent titrations were performed for each ligand tested.
# [5] = read-out: IC50 for the inhibition of labelled-LecA binding to a galactosylated polymer (ELLA), biotinylated LecA 0.1 μg/mL, multi-well plate
# [6] = read-out: IC50 for the inhibition of label-free LecA binding to a galactosylated chip surface (SPR), LecA 5 μM, 25° C.
# [7] = read-out: Dissociation constant for the interaction in solution with LecA (ITC), 25° C., 0.1 M TrisHCl, pH 7.5
# T1 sequence (Q05097 whole entry): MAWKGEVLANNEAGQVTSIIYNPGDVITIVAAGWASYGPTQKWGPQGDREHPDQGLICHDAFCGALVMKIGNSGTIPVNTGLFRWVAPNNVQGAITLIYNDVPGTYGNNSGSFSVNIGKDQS
Structure (SMILES),inhibiting concentrations of lectin-induced red cells agglutination (minimum inhibitory concentration) (LecA [1]),IC50 (LecA [2]; [5]) [µM],Hemolysis of red cells (Rabbit erythrocytes),"IC50 (SPR), in words (LecA [3])",IC50 (LecA [3]; [6]) [nM],also measured
CC(C)(C)c1cc2c(OCc3cn(CC(=O)NCC(=O)NCCOC4OC(CO)C(O)C(O)C4O)nn3)c(c1)Cc1cc(C(C)(C)C)cc(c1OCc1cn(CC(=O)NCC(=O)NCCOC3OC(CO)C(O)C(O)C3O)nn1)Cc1cc(C(C)(C)C)cc(c1OCc1cn(CC(=O)NCC(=O)NCCOC3OC(CO)C(O)C(O)C3O)nn1)Cc1cc(C(C)(C)C)cc(c1OCc1cn(CC(=O)NCC(=O)NCCOC3OC(CO)C(O)C(O)C3O)nn1)C2 (stereo not drawn) [Comp. 21],250 µM,21,–,–,–,–
CC(C)(C)c1cc2c(OCc3cn(CC(=O)Nc4ccc(OC5OC(CO)C(O)C(O)C5O)cc4)nn3)c(c1)Cc1cc(C(C)(C)C)cc(c1OCc1cn(CC(=O)Nc3ccc(OC4OC(CO)C(O)C(O)C4O)cc3)nn1)Cc1cc(C(C)(C)C)cc(c1OCc1cn(CC(=O)Nc3ccc(OC4OC(CO)C(O)C(O)C4O)cc3)nn1)Cc1cc(C(C)(C)C)cc(c1OCc1cn(CC(=O)Nc3ccc(OC4OC(CO)C(O)C(O)C4O)cc3)nn1)C2 (stereo not drawn) [Comp. 27],–,0.8,Hemolysis of red cells is observed,–,–,"IC50 (ELLA), in words (LecA [2]): sub micromolar range"
"O=C(CNC(=O)Cn1cc(CO)nn1)NCCO[C@@H]1O[C@H](CO)[C@H](O)[C@H](O)[C@H]1O [Comp. 10, 2-N-[(1,2,3-Triazol-4-hydroxymethyl-1-yl)-acetamido]glycinamido-ethyl β-D-galactopyranoside]",2 500 μM,–,–,–,–,IC50 (LecA [2]): 300 µM; IC50 (LecA [3]): 60000 nM; Kd (LecA [4]): 180 µM
CC(C)(C)c1cc2c(OCc3cn(CC(=O)Nc4ccc(OC5OC(CO)C(O)C(O)C5O)cc4)nn3)c(c1)Cc1cc(C(C)(C)C)cc(c1OCc1cn(CC(=O)Nc3ccc(OC4OC(CO)C(O)C(O)C4O)cc3)nn1)Cc1cc(C(C)(C)C)cc(c1OCc1cn(CC(=O)Nc3ccc(OC4OC(CO)C(O)C(O)C4O)cc3)nn1)Cc1cc(C(C)(C)C)cc(c1OCc1cn(CC(=O)Nc3ccc(OC4OC(CO)C(O)C(O)C4O)cc3)nn1)C2 (stereo not drawn) [Comp. 29],–,0.9,Hemolysis of red cells is observed,–,–,"IC50 (ELLA), in words (LecA [2]): sub micromolar range"
CC(C)(C)c1cc2c(OCc3cn(CC(=O)NCC(=O)NCCOC4OC(CO)C(O)C(O)C4O)nn3)c(c1)Cc1cc(C(C)(C)C)cc(c1OCc1cn(CC(=O)NCC(=O)NCCOC3OC(CO)C(O)C(O)C3O)nn1)Cc1cc(C(C)(C)C)cc(c1OCc1cn(CC(=O)NCC(=O)NCCOC3OC(CO)C(O)C(O)C3O)nn1)Cc1cc(C(C)(C)C)cc(c1OCc1cn(CC(=O)NCC(=O)NCCOC3OC(CO)C(O)C(O)C3O)nn1)C2 (stereo not drawn) [Comp. 25],625 µM,14,–,micromolar range,1200,–
"O=C(Cn1cc(CO)nn1)NCCOCCO[C@@H]1O[C@H](CO)[C@H](O)[C@H](O)[C@H]1O [Comp. 5, 1-[(1,2,3-Triazol-4-hydroxymethyl-1-yl)-acetamido]-3-oxapent-5-yl β-D-galactopyranoside]",10 000 μM,–,–,–,–,IC50 (LecA [2]): 250 µM; IC50 (LecA [3]): 58300 nM; Kd (LecA [4]): 107 µM
CC(C)(C)c1cc2c(OCc3cn(CC(=O)NCC(=O)NCCOC4OC(CO)C(O)C(O)C4O)nn3)c(c1)Cc1cc(C(C)(C)C)cc(c1OCc1cn(CC(=O)NCC(=O)NCCOC3OC(CO)C(O)C(O)C3O)nn1)Cc1cc(C(C)(C)C)cc(c1OCc1cn(CC(=O)NCC(=O)NCCOC3OC(CO)C(O)C(O)C3O)nn1)Cc1cc(C(C)(C)C)cc(c1OCc1cn(CC(=O)NCC(=O)NCCOC3OC(CO)C(O)C(O)C3O)nn1)C2 (stereo not drawn) [Comp. 23],250 µM,7,–,micromolar range,1100,Kd (LecA [4]; [7]): 239 µM
CC(C)(C)c1cc2c(OCc3cn(CC(=O)NCCOCCOC4OC(CO)C(O)C(O)C4O)nn3)c(c1)Cc1cc(C(C)(C)C)cc(c1OCc1cn(CC(=O)NCCOCCOC3OC(CO)C(O)C(O)C3O)nn1)Cc1cc(C(C)(C)C)cc(c1OCc1cn(CC(=O)NCCOCCOC3OC(CO)C(O)C(O)C3O)nn1)Cc1cc(C(C)(C)C)cc(c1OCc1cn(CC(=O)NCCOCCOC3OC(CO)C(O)C(O)C3O)nn1)C2 (stereo not drawn) [Comp. 19],500 µM,7,–,micromolar range,1000,"Kd (LecA [4]; [7]): 0.094 µM; Kd (LecA [4]; read-out: dissociation constant (ITC), 25° C.): 0.094 µM"
CC(C)(C)c1cc2c(OCc3cn(CC(=O)Nc4ccc(OC5OC(CO)C(O)C(O)C5O)cc4)nn3)c(c1)Cc1cc(C(C)(C)C)cc(c1OCc1cn(CC(=O)Nc3ccc(OC4OC(CO)C(O)C(O)C4O)cc3)nn1)Cc1cc(C(C)(C)C)cc(c1OCc1cn(CC(=O)Nc3ccc(OC4OC(CO)C(O)C(O)C4O)cc3)nn1)Cc1cc(C(C)(C)C)cc(c1OCc1cn(CC(=O)Nc3ccc(OC4OC(CO)C(O)C(O)C4O)cc3)nn1)C2 (stereo not drawn) [Comp. 31],–,5,Hemolysis of red cells is observed,–,–,–
